Measured values taken from ChEMBL document CHEMBL1158664, “New compounds with DNA strand-scission activity from the combined leaf and stem of Uvaria hamiltonii” (J Nat Prod, 1998).
Values after ≈ are worked out from the molar mass of the structure shown. Active and inactive are the calls of the source. No cut-off for these calls is given here.

How the values were obtained:
[1] = Cytotoxicity against human 9KB cells; type: functional, cell-based
[2] = Induction of strand scission activity in DNA assessed as ratio of 2.5 uM drug-induced to bleomycin-induced relaxation of supercoiled DNA
[3] = Induction of strand scission activity in DNA assessed as relaxation of supercoiled DNA at 2.5 ug/ml; design: scale not given: the % may be the effect or the level left
[4] = Induction of strand scission activity in DNA assessed as ratio of 25 uM drug-induced to bleomycin-induced relaxation of supercoiled DNA
[5] = Induction of strand scission activity in DNA assessed as relaxation of supercoiled DNA at 25 ug/ml; design: scale not given: the % may be the effect or the level left

Activity [2]	Activity [3]	Activity [4]	Activity [5]	Structure (SMILES)	IC50 [1]
		1	76%	COc1cc2c(c(OC)c1OC)C(=O)CC(c1ccc(O)c(O)c1)O2 (racemic) [HAMILTONE B]	> 20 µg/mL
		1.1	88%	COc1ccc([C@@H]2CC(=O)c3c(cc(OC)c(O)c3OC)O2)cc1 [HAMILTONE A]	> 20 µg/mL
		inactive	inactive	O=C(OC[C@@]12C=C[C@@H](OC(=O)c3ccccc3)[C@@H](O)[C@H]1Cc1cc(O)ccc1O2)c1ccccc1 [HEMILXANTHENE]	10 µg/mL (≈ 21.2 µM)

The remaining lines, values behind:

Structure (SMILES)	Activity [2]	Activity [3]	Activity [4]	Activity [5]	IC50 [1]
COc1cc2c(c(OC)c1OC)C(=O)/C(=C/c1ccc(O)c(O)c1)O2	10	83%			> 20 µg/mL
COc1cc(O)c(C(=O)/C=C/c2ccc(O)c(O)c2)c(OC)c1OC [HAMILCONE]			0.6	47%	8 µg/mL (≈ 23.1 µM)
